From patent US20150119251A1, “AGRICULTURAL PLANT-PROTECTING AGENTS CONTAINING DIPEPTIDE DERIVATIVE AS ACTIVE INGREDIENT” (REPUBLIC OF KOREA (RURAL DEVELOPMENT ADMINISTRATION), priority 2012, published 2015)
Square brackets hold non-standard residues; d marks the D form. Peptide text beside a SMILES is read from it. * marks the point of attachment. ξ: configuration not given here. Trt = c1ccc(C(c2ccccc2)(c2ccccc2)*)cc1; dIle(3ξ) = CCC(C)[C@@H](N)C(=O)O; Boc = CC(C)(C)OC(=O)*; OBn = c1ccc(CO*)cc1; OtBu = CC(C)(C)O*; OAll = C=CCO*

How the values were obtained:
[1] = tested on: tobacco bacterial rot (Pectobacterium carotovorum); assay: Suppression of tobacco bacterial rot; assay type: in vivo, Pectobacterium carotovorum SCC1
Method: A tobacco or cucumber was sown in a plastic pot with a diameter of 10 cm×13 cm, and then, 12 pots were added in a yellow box. After seeding, 100 μL was inoculated to the cotyledons of cucumber or tobacco, in which first leaf was started to come out. The test compounds were dissolved in 20% methanol to make a stock solution, and then, the stock solution was diluted to the concentrations of 1, 10, and 100 ppm.
After 7 days, the pathogen of a plant bacterial rot (Pectobacterium carotovorum SCC1) was cultured in a TSA medium for 27 hours; and then, the cultured pathogen was sprayed in a concentration of 10^8 cfu/mL to the plant leaves, and cultured at 30° C. for 3 days. The plant anthracnose germ (Colletotrichum orbiculare) was cultured in a GBA (Green bean agar) medium to induce spores for about 2 to 3 weeks. The germ was sprayed in a concentration of 10^5 cell/mL and then cultured at 26° C. for 1 day. When fourth or fifth leaf came out, 200 μL of each of the test compounds was inoculated to third leaf. After 7 days, the pathogen of the plant bacterial rot was sprayed to the plant leaves in the concentration of 10^8 cfu/mL, and then cultured at 30° C. for 3 days.
The investigation was performed with naked eyes, and the lesion relative areas were investigated until 0 to 100% according to the shortness degrees of the bacterial rot. The anthracnose was investigated by counting the number of lesions occurred on the leaves.

[2] = tested on: pepper phytophthora blight (Phytopthora capsici); assay: Suppression of pepper phytophthora blight on leaves; assay type: in vivo; settings: for Lesion outbreak rate: pepper leaves
Method: The peppers were raised in the same method as Example 3, and then, the test compounds were dissolved in 20% methanol to make a stock solution, and a stock was diluted to the concentrations of 0.1, 1.0, and 10.0 ppm. The test solutions were sprayed on the leaves or drench-treated on the leaves. After 7 days, the pathogen of plant bacterial rot (Pectobacterium carotovorum SCC1) was cultured in a TSA medium for 27 hours, and then, wetted on an 8 mm diameter paper disc in the concentration of 10^8 cfu/mL. The paper disc was located in the center of the leaves that were cut roundly, and then, after about 7 days, the lesion area was measured. In the case of phytophthora, the potato agar medium cultured with the phytophthora (Phytophthora capsici) was cut in the internal diameter size of 5 mm with a cork borer, and then inoculated to the leaves. After 7 days, the lesion area was observed. In the case of a bacterial rot, when Compounds 6, 89, 93, and 95 were sprayed on the pepper leaves, the bacterial rot was not found in the concentration of 1 or 10 ppm as compared with the non-treated group. […] The Suppression of lesion formation on the leaves when these compounds were drench-treated to the roots can be explained as it was resulted from that systemic disease resistance was induced in the whole plant. These test results are illustrated in the photographs of FIGS. 5 to 9.

SMILES	Lesion outbreak rate ([1]; Table 5, tobacco, 10 ppm)	Lesion outbreak rate ([1]; Table 5, tobacco, 100 ppm)	Lesion outbreak rate ([2]; 0.1 ppm)	Lesion outbreak rate ([2]; 1.0 ppm)	further results
COC(=O)[C@H]1CCCN1C(=O)[C@H](CCCCNC(=O)OC(C)(C)C)NC(=O)OC(C)(C)C [Compound 48] (Boc-Lys(Boc)-[dP]-OMe)	25%	50%	–	–	–
COC(=O)[C@H]1CCCN1C(=O)[C@@H](NC(=O)OC(C)(C)C)C(C)C [Compound 49] (Boc-Val-[dP]-OMe)	23%	0%	–	–	–
COC(=O)[C@H]1CCCN1C(=O)[C@H](CCC(=O)OC(C)(C)C)NC(=O)OC(C)(C)C [Compound 50] (Boc-Glu(OtBu)-[dP]-OMe)	35%	60%	–	–	–
COC(=O)[C@@H]1CCCN1C(=O)[C@@H](C)NC(=O)OC(C)(C)C [Compound 51] (Boc-[dA]-Pro-OMe)	0%	68%	–	–	–
COC(=O)[C@@H]1CCCN1C(=O)[C@@H](Cc1c[nH]c2ccccc12)NC(=O)OC(C)(C)C [Compound 52] (Boc-[dW]-Pro-OMe)	0%	25%	–	–	–
COC(=O)[C@@H]1CCCN1C(=O)[C@@H](Cc1ccc(O)cc1)NC(=O)OC(C)(C)C [Compound 53] (Boc-[dY]-Pro-OMe)	45%	50%	–	–	–
COC(=O)[C@@H]1CCCN1C(=O)[C@@H](CCC(N)=O)NC(=O)OC(C)(C)C [Compound 54] (Boc-[dQ]-Pro-OMe)	36%	60%	–	–	–
COC(=O)[C@@H]1CCCN1C(=O)[C@H]1CCCN1C(=O)OC(C)(C)C [Compound 55] (Boc-[dP]-Pro-OMe)	48%	36%	–	–	–
COC(=O)[C@@H]1CCCN1C(=O)[C@H](NC(=O)OC(C)(C)C)C(C)C [Compound 56] (Boc-[dV]-Pro-OMe)	13%	40%	–	–	–
COC(=O)[C@@H]1CCCN1C(=O)[C@@H](CC(C)C)NC(=O)OC(C)(C)C [Compound 57] (Boc-[dL]-Pro-OMe)	25%	25%	–	–	–
CCC(C)[C@@H](NC(=O)OC(C)(C)C)C(=O)N1CCC[C@H]1C(=O)OC (stereo partly shown) [Compound 58] (Boc-[dIle(3ξ)]-Pro-OMe)	28%	13%	–	–	–
COC(=O)[C@@H]1CCCN1C(=O)[C@@H](Cc1ccccc1)NC(=O)OC(C)(C)C [Compound 59] (Boc-[dF]-Pro-OMe)	38%	25%	–	–	–
COC(=O)[C@@H]1CCCN1C(=O)[C@@H](CO)NC(=O)OC(C)(C)C [Compound 60] (Boc-[dS]-Pro-OMe)	18%	56%	–	–	–
COC(=O)[C@@H]1CCCN1C(=O)[C@@H](CCSC)NC(=O)OC(C)(C)C [Compound 63] (Boc-[dM]-Pro-OMe)	56%	52%	–	–	–
COC(=O)[C@H]1CCCN1C(=O)[C@@H](CO)NC(=O)OC(C)(C)C [Compound 64] (Boc-[dS]-[dP]-OMe)	–	–	–	–	Lesion outbreak rate ([1]; Table 6, tobacco, 1 ppm): 100%; Lesion outbreak rate ([1]; Table 6, tobacco, 10 ppm): 23%; Lesion outbreak rate ([1]; Table 6, tobacco, 100 ppm): 100%
COC(=O)[C@H]1CCCN1C(=O)[C@@H](Cc1ccccc1)NC(=O)OC(C)(C)C [Compound 65] (Boc-[dF]-[dP]-OMe)	–	–	–	–	Lesion outbreak rate ([1]; Table 6, tobacco, 1 ppm): 80%; Lesion outbreak rate ([1]; Table 6, tobacco, 10 ppm): 57%; Lesion outbreak rate ([1]; Table 6, tobacco, 100 ppm): 55%
COC(=O)[C@H]1CCCN1C(=O)[C@@H](CCSC)NC(=O)OC(C)(C)C [Compound 68] (Boc-[dM]-[dP]-OMe)	–	–	–	–	Lesion outbreak rate ([1]; Table 6, tobacco, 1 ppm): 78%; Lesion outbreak rate ([1]; Table 6, tobacco, 10 ppm): 53%; Lesion outbreak rate ([1]; Table 6, tobacco, 100 ppm): 25%

SMILES	Lesion outbreak rate ([1]; Table 5, tobacco, 10 ppm)	Lesion outbreak rate ([1]; Table 5, tobacco, 100 ppm)	Lesion outbreak rate ([2]; 0.1 ppm)	Lesion outbreak rate ([2]; 1.0 ppm)	further results
COC(=O)[C@H]1CCCN1C(=O)[C@@H](C)NC(=O)OC(C)(C)C [Compound 70] (Boc-[dA]-[dP]-OMe)	–	–	–	–	Lesion outbreak rate ([1]; Table 6, tobacco, 1 ppm): 80%; Lesion outbreak rate ([1]; Table 6, tobacco, 10 ppm): 72%; Lesion outbreak rate ([1]; Table 6, tobacco, 100 ppm): 77%
COC(=O)[C@H]1CCCN1C(=O)[C@@H](Cc1ccc(O)cc1)NC(=O)OC(C)(C)C [Compound 71] (Boc-[dY]-[dP]-OMe)	–	–	–	–	Lesion outbreak rate ([1]; Table 6, tobacco, 1 ppm): 60%; Lesion outbreak rate ([1]; Table 6, tobacco, 10 ppm): 65%; Lesion outbreak rate ([1]; Table 6, tobacco, 100 ppm): 40%
COC(=O)[C@H]1CCCN1C(=O)[C@@H](CCC(N)=O)NC(=O)OC(C)(C)C [Compound 72] (Boc-[dQ]-[dP]-OMe)	–	–	–	–	Lesion outbreak rate ([1]; Table 6, tobacco, 1 ppm): 55%; Lesion outbreak rate ([1]; Table 6, tobacco, 10 ppm): 72%; Lesion outbreak rate ([1]; Table 6, tobacco, 100 ppm): 45%
COC(=O)[C@H]1CCCN1C(=O)[C@@H](Cc1c[nH]c2ccccc12)NC(=O)OC(C)(C)C [Compound 73] (Boc-[dW]-[dP]-OMe)	–	–	–	–	Lesion outbreak rate ([1]; Table 6, tobacco, 1 ppm): 35%; Lesion outbreak rate ([1]; Table 6, tobacco, 10 ppm): 60%; Lesion outbreak rate ([1]; Table 6, tobacco, 100 ppm): 46%
COC(=O)[C@H]1CCCN1C(=O)[C@@H](CC(C)C)NC(=O)OC(C)(C)C [Compound 75] (Boc-[dL]-[dP]-OMe)	–	–	–	–	Lesion outbreak rate ([1]; Table 6, tobacco, 1 ppm): 25%; Lesion outbreak rate ([1]; Table 6, tobacco, 10 ppm): 80%; Lesion outbreak rate ([1]; Table 6, tobacco, 100 ppm): 100%
COC(=O)[C@H]1CCCN1C(=O)[C@H](NC(=O)OC(C)(C)C)C(C)C [Compound 76] (Boc-[dV]-[dP]-OMe)	–	–	–	–	Lesion outbreak rate ([1]; Table 6, tobacco, 1 ppm): 46%; Lesion outbreak rate ([1]; Table 6, tobacco, 10 ppm): 41%; Lesion outbreak rate ([1]; Table 6, tobacco, 100 ppm): 37%
COC(=O)[C@@H]1CCCN1C(=O)[C@@H](CSC(c1ccccc1)(c1ccccc1)c1ccccc1)NC(=O)OC(C)(C)C [Compound 77] (Boc-[dC](Trt)-Pro-OMe)	–	–	46 area %	36 area %	–
COC(=O)[C@@H]1CCCN1C(=O)[C@H](N)CS [Compound 78] (H-[dC]-Pro-OMe)	–	–	58 area %	47 area %	–
COC(=O)CNC(=O)[C@H](CO)NC(=O)OC(C)(C)C [Compound 81] (Boc-Ser-Gly-OMe)	–	–	68 area %	58 area %	–
CCOC(=O)[C@H](C)NC(=O)CNC(=O)OC(C)(C)C [Compound 82] (Boc-Gly-Ala-OEt)	–	–	74 area %	60 area %	–
CCOC(=O)[C@H](Cc1ccccc1)NC(=O)[C@H](CC(C)C)NC(=O)OC(C)(C)C [Compound 83] (Boc-Leu-Phe-OEt)	–	–	80 area %	57 area %	–
COC(=O)[C@@H]1CCCN1C(=O)[C@H](Cc1c[nH]c2ccccc12)NC(=O)OC(C)(C)C [Compound 84] (Boc-Trp-Pro-OMe)	–	–	35 area %	33 area %	–
COC(=O)[C@@H]1CCCN1C(=O)[C@H](C)NC(=O)OC(C)(C)C [Compound 86] (Boc-Ala-Pro-OMe)	–	–	58 area %	83 area %	–
COC(=O)[C@@H](NC(=O)CNC(=O)OC(C)(C)C)C(C)C [Compound 87] (Boc-Gly-Val-OMe)	–	–	62 area %	36 area %	–
COC(=O)[C@@H](NC(=O)CN)C(C)C [Compound 88] (H-Gly-Val-OMe)	–	–	35 area %	33 area %	–
C=CCOC(=O)C[C@H](NC(=O)OC(C)(C)C)C(=O)N[C@@H](Cc1ccccc1)C(=O)OC [Compound 92] (Boc-Asp(OAll)-Phe-OMe)	–	–	25 area %	38 area %	–
COC(=O)[C@H](Cc1ccccc1)NC(=O)[C@H](CC(=O)OCc1ccccc1)NC(=O)OC(C)(C)C [Compound 94] (Boc-Asp(OBn)-Phe-OMe)	–	–	12 area %	6.8 area %	Outbreak of the phytophthora blight on the leaves ([2]; drench-treated to the roots): significantly decreased; Lesion formation, pepper phytophthora test ([2]; drench-treated, 1.0 or 10.0 ppm): no the lesion formations
